{
  "source": "patent US12460243B2",
  "about": "“Mass spectrometry determination of the sensitivity or resistance of bacteria to an antibiotic” (priority 2019, dated 2025)",
  "assay_type_in_all_cases": "cell-based",
  "key": {"[1]": {"system": "Escherichia coli", "experiment": "MALDI-TOF detection of released characteristic proteins, 10 min at 50° C., filtration (examples V, VI)", "details": "for Aire sous la courbe des pics observés, Protéine chaperonne de stress acide HdeB / Aire sous la courbe des pics observés, Protéine ribosomique 50S L29 / Aire sous la courbe des pics observés, Protéine ribosomique 50S L31 / Aire sous la courbe des pics observés, Protéine ribosomique 50S L33 / Aire sous la courbe des pics observés, SPIRAP (Stationary-Phase-Induced Ribosome-Associated Protein) / Ratio par protéine HdeB/Colistine / Ratio par protéine L29/Colistine / Ratio par protéine L31/Colistine / Ratio par protéine L33/Colistine / Ratio par protéine SIRAP/Colistine / Somme des ratios / sensitivity or resistance to colistin by MALDI-TOF: colistin 2.5 mg/ml, 10 min 50° C.; for classification by sum of the ratios against threshold: threshold 0.30", "procedure": "The tests were carried out using the following steps: • preparing a suspension of microorganism at 2 McF in water (suspension medium, bioMérieux reference 70700), • preparing a solution of colistin sulfate (Sigma reference C4461) at a concentration of 2× in pure water (taking into account the colistin titer indicated by the manufacturer).\nIn the context of this example, the tests were carried out with the method of the present invention to determine the sensitivity or resistance of several bacteria of several strains such as in example V and comprising the following steps: • measuring the intensity of each peak observed, • finding a ratio between the sum of the intensities of the protein peaks of the microorganism and at least 1 peak of colistin. • determining the status, resistant or sensitive to colistin, as a function of the sum of the ratios obtained and of a threshold fixed for each species. • a resistant microorganism will have a low ratio and a sensitive microorganism will have a high ratio.\nFirstly, the same strains of E. coli (EC_S10, EC_S15, EC_R16, EC_R17), used previously, are studied and the proteins characteristic of the species E. coli are analyzed. They are the following proteins: the stationary-phase-induced ribosome-associated protein (SPIRAP), the acid stress chaperone HdeB and the 50S ribosomal proteins L29, L31 and L33."}, "[2]": {"system": "Escherichia coli", "experiment": "microdilution in broth (reference method)", "procedure": "(§1) So as to be able to evaluate the efficacy of the method according to the invention, the different strains were analyzed beforehand by microdilution in broth in order to determine their status (sensitive or resistant). This method is regarded as the reference method by the CLSI and EUCAST."}, "[3]": {"system": "Klebsiella pneumoniae", "experiment": "microdilution in broth (reference method)", "procedure": "as §1"}},
  "note": "Values joined by “and” are separate entries in the source; they are usually repeats but may differ in a detail not shown here. Equal entries are not always repeated. Bridge positions count the residues as written; N and C are the ends. Square brackets hold non-standard residues; d marks the D form. Peptide text beside a SMILES is read from it. * marks the point of attachment. Heptanoyl(6-Me) = CC(C)CCCCC(=O)*; Dab = NCC[C@H](N)C(=O)O",
  "data": [
    {"smiles": "CC(C)CCCCC(=O)N[C@@H](CCN)C(=O)N[C@H](C(=O)N[C@@H](CCN)C(=O)N[C@H]1CCNC(=O)[C@H]([C@@H](C)O)NC(=O)[C@H](CCN)NC(=O)[C@H](CCN)NC(=O)[C@H](CC(C)C)NC(=O)[C@@H](CC(C)C)NC(=O)[C@H](CCN)NC1=O)[C@@H](C)O", "note": "[colistin] ({Heptanoyl(6-Me)}-[Dab]T[Dab][Dab][Dab][dL]L[Dab][Dab]T; lactam 4-C)", "values": [
      {"measurement": "Aire sous la courbe des pics observés, Protéine chaperonne de stress acide HdeB", "setting": "[1]; strain EC-R16", "result": 0.00, "unit": "unité arbitraire"},
      {"measurement": "Aire sous la courbe des pics observés, Protéine ribosomique 50S L29", "setting": "[1]; strain EC-R16", "result": 0.00, "unit": "unité arbitraire"},
      {"measurement": "Aire sous la courbe des pics observés, Protéine ribosomique 50S L31", "setting": "[1]; strain EC-R16", "result": 0.00, "unit": "unité arbitraire"},
      {"measurement": "Aire sous la courbe des pics observés, Protéine ribosomique 50S L33", "setting": "[1]; strain EC-R16", "result": 0.00, "unit": "unité arbitraire"},
      {"measurement": "Aire sous la courbe des pics observés, SPIRAP (Stationary-Phase-Induced Ribosome-Associated Protein)", "setting": "[1]; strain EC-R16", "result": 0.00, "unit": "unité arbitraire"},
      {"measurement": "Ratio par protéine HdeB/Colistine", "setting": "[1]; strain EC-R16", "result": 0.00},
      {"measurement": "Ratio par protéine L29/Colistine", "setting": "[1]; strain EC-R16", "result": 0.00},
      {"measurement": "Ratio par protéine L31/Colistine", "setting": "[1]; strain EC-R16", "result": 0.00},
      {"measurement": "Ratio par protéine L33/Colistine", "setting": "[1]; strain EC-R16", "result": 0.00},
      {"measurement": "Ratio par protéine SIRAP/Colistine", "setting": "[1]; strain EC-R16", "result": 0.00},
      {"measurement": "Somme des ratios", "setting": "[1]; strain EC-R16", "result": 0.00},
      {"measurement": "classification by sum of the ratios against threshold", "setting": "[1]; strain EC-R16", "result": "resistant (the strains whose sum of the ratios is strictly below 0.30 will be considered as resistant)"},
      {"measurement": "Aire sous la courbe des pics observés, Protéine chaperonne de stress acide HdeB", "setting": "[1]; strain EC-R17", "result": 0.00, "unit": "unité arbitraire"},
      {"measurement": "Aire sous la courbe des pics observés, Protéine ribosomique 50S L29", "setting": "[1]; strain EC-R17", "result": 0.00, "unit": "unité arbitraire"},
      {"measurement": "Aire sous la courbe des pics observés, Protéine ribosomique 50S L31", "setting": "[1]; strain EC-R17", "result": 0.00, "unit": "unité arbitraire"},
      {"measurement": "Aire sous la courbe des pics observés, Protéine ribosomique 50S L33", "setting": "[1]; strain EC-R17", "result": 0.00, "unit": "unité arbitraire"},
      {"measurement": "Aire sous la courbe des pics observés, SPIRAP (Stationary-Phase-Induced Ribosome-Associated Protein)", "setting": "[1]; strain EC-R17", "result": 0.00, "unit": "unité arbitraire"},
      {"measurement": "Ratio par protéine HdeB/Colistine", "setting": "[1]; strain EC-R17", "result": 0.00},
      {"measurement": "Ratio par protéine L29/Colistine", "setting": "[1]; strain EC-R17", "result": 0.00},
      {"measurement": "Ratio par protéine L31/Colistine", "setting": "[1]; strain EC-R17", "result": 0.00},
      {"measurement": "Ratio par protéine L33/Colistine", "setting": "[1]; strain EC-R17", "result": 0.00},
      {"measurement": "Ratio par protéine SIRAP/Colistine", "setting": "[1]; strain EC-R17", "result": 0.00},
      {"measurement": "Somme des ratios", "setting": "[1]; strain EC-R17", "result": 0.00},
      {"measurement": "classification by sum of the ratios against threshold", "setting": "[1]; strain EC-R17", "result": "resistant (the strains whose sum of the ratios is strictly below 0.30 will be considered as resistant)"},
      {"measurement": "Ratio par protéine HdeB/Colistine", "setting": "[1]; strain EC-S10", "result": 0.15},
      {"measurement": "Ratio par protéine L33/Colistine", "setting": "[1]; strain EC-S10", "result": 0.15},
      {"measurement": "Somme des ratios", "setting": "[1]; strain EC-S10", "result": "0.30 and 0.39"},
      {"measurement": "classification by sum of the ratios against threshold", "setting": "[1]; strain EC-S10", "result": "sensitive (the strains whose sum of the ratios is greater than or equal to 0.30 will be considered as sensitive)"},
      {"measurement": "Aire sous la courbe des pics observés, Protéine chaperonne de stress acide HdeB", "setting": "[1]; strain EC-S15", "result": "97.46 unité arbitraire and 60.9 unité arbitraire"},
      {"measurement": "Aire sous la courbe des pics observés, Protéine ribosomique 50S L33", "setting": "[1]; strain EC-S15", "result": "86.71 unité arbitraire and 68.12 unité arbitraire"},
      {"measurement": "Aire sous la courbe des pics observés, SPIRAP (Stationary-Phase-Induced Ribosome-Associated Protein)", "setting": "[1]; strain EC-S15", "result": 0.00, "unit": "unité arbitraire"},
      {"measurement": "Ratio par protéine HdeB/Colistine", "setting": "[1]; strain EC-S15", "result": 0.21},
      {"measurement": "Ratio par protéine L29/Colistine", "setting": "[1]; strain EC-S15", "result": "0.02 and 0.01"},
      {"measurement": "Ratio par protéine L31/Colistine", "setting": "[1]; strain EC-S15", "result": "0.02 and 0.04"},
      {"measurement": "Ratio par protéine L33/Colistine", "setting": "[1]; strain EC-S15", "result": "0.26 and 0.19"},
      {"measurement": "Somme des ratios", "setting": "[1]; strain EC-S15", "result": "0.55 and 0.44"},
      {"measurement": "classification by sum of the ratios against threshold", "setting": "[1]; strain EC-S15", "result": "sensitive (the strains whose sum of the ratios is greater than or equal to 0.30 will be considered as sensitive)"},
      {"measurement": "sensitivity or resistance to colistin by MALDI-TOF", "setting": "[1]; strain EC_R16", "result": "resistant"},
      {"measurement": "sensitivity or resistance to colistin by MALDI-TOF", "setting": "[1]; strain EC_R17", "result": "resistant"},
      {"measurement": "sensitivity or resistance to colistin by MALDI-TOF", "setting": "[1]; strain EC_S10", "result": "sensitive"},
      {"measurement": "sensitivity or resistance to colistin by MALDI-TOF", "setting": "[1]; strain EC_S15", "result": "sensitive"},
      {"measurement": "Statuts par microdilution", "setting": "[2]; strain EC_R16 (mcr-1 plasmid)", "result": "Résistante"},
      {"measurement": "Statuts par microdilution", "setting": "[2]; strain EC_R17 (mcr-1 plasmid)", "result": "Résistante"},
      {"measurement": "Statuts par microdilution", "setting": "[2]; strain EC_S10", "result": "Sensible"},
      {"measurement": "Statuts par microdilution", "setting": "[2]; strain EC_S15", "result": "Sensible"},
      {"measurement": "Statuts par microdilution", "setting": "[3]; strain KP_R9 (chromosomal)", "result": "Résistante"},
      {"measurement": "Statuts par microdilution", "setting": "[3]; strain KP_S10", "result": "Sensible"},
      {"measurement": "Statuts par microdilution", "setting": "[3]; strain KP_S15", "result": "Sensible"},
      {"measurement": "Statuts par microdilution", "setting": "[3]; strain KR_R16 (chromosomal)", "result": "Résistante"}
    ]}
  ]
}
